The text below walks through data of US8993574B2, “Pyrrole antifungal agents” (F2G Ltd, priority 2008, dated 2015).

Values after ≈ are worked out from the molar mass of the structure shown. Where only a bound is given, the exact number is not on record here.

Type in all cases: cell-based
Assay [1] deals with Aspergillus fumigatus AF210. Put plainly: MIC, RPMI medium. The note with it: Aspergillus fumigatus, AF210, MIC banded into grades, read-out: MIC grade, A. fumigatus 210. Summed up: (§1)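 Minimum inhibitory concentrations were determined in glucose-supplemented (2%) RPMI buffered to pH 7.0 with 0.135 M MOPS. Wells held 1−2×10^4 cfu/mL and compound from 50 to 0.05 mg/L, incubated 24-48 h at 35° C, with >80% growth reduction by OD 485 nm as endpoint.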

The test system of assay [2] is Aspergillus terreus AT4. Put plainly: MIC, RPMI medium. The settings on record: Aspergillus terreus, AT4, MIC banded into grades, read-out: MIC grade, A. terreus. The method in brief:
as §1

The subject of assay [3] is Aspergillus terreus AT49. Put plainly: MIC, RPMI medium. The settings on record: Aspergillus terreus, AT49, MIC banded into grades, read-out: MIC grade, A. terreus 49. Summed up: as §1
The test system of assay [4] is Aspergillus flavus. Put plainly: MIC, RPMI medium. The settings on record: Aspergillus flavus, MIC banded into grades, read-out: MIC grade, A. flavus. The method in brief: as §1
The subject of assay [5] is Aspergillus fumigatus AF293. Put plainly: MIC, RPMI medium. The note with it: Aspergillus fumigatus, AF293, MIC banded into grades, read-out: MIC grade, A. fumigatus. The method in brief:
as §1

Assay [6] deals with Aspergillus niger. The assay can be described thus: MIC, RPMI medium. The note with it: Aspergillus niger, MIC banded into grades, read-out: MIC grade, A. niger. The method in brief:
as §1

Assay [7] relates to Aspergillus fumigatus AF210. Put plainly: MIC, YAG medium. The settings on record: Aspergillus fumigatus, 24 h at 35° C, MIC banded into grades, read-out: MIC grade, A. fumigatus 210. Summed up: (§2)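 Spores harvested from 5-day Sabouraud agar cultures were inoculated at 1−2×10^4 cfu/mL into YAG medium (1% glucose, 1% ammonium chloride, 0.5% yeast extract) over doubling drug dilutions spanning 50-0.05 mg/L, or 0.5-0.0005 mg/L on repeat. After 24 h at 35° C, OD485 was read. MIC is the lowest concentration inhibiting growth >70% versus drug-free control, in mg/L.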

For assay [8], the system named is Aspergillus terreus AT4. The assay can be described thus: MIC, YAG medium. The settings on record: Aspergillus terreus, 24 h at 35° C, MIC banded into grades, read-out: MIC grade, A. terreus. Summed up:
as §2

In assay [9] the test system is Aspergillus terreus AT49. Put plainly: MIC, YAG medium. The note with it: Aspergillus terreus, 24 h at 35° C, MIC banded into grades, read-out: MIC grade, A. terreus 49. The method in brief: as §2
In assay [10] the test system is Aspergillus flavus. The assay can be described thus: MIC, YAG medium. The settings on record: Aspergillus flavus, 24 h, 24 h at 35° C, MIC banded into grades, read-out: MIC grade, A. flavus. The method in brief: as §2
Assay [11] relates to Aspergillus fumigatus AF293. Put plainly: MIC, YAG medium. The settings on record: Aspergillus fumigatus, 24 h at 35° C, MIC banded into grades, read-out: MIC grade, A. fumigatus. Summed up: as §2
For assay [12], the system named is Aspergillus niger. The assay can be described thus: MIC, YAG medium. The settings on record: Aspergillus niger, 24 h at 35° C, MIC banded into grades, read-out: MIC grade, A. niger. The method in brief:
as §2

`Cc1cc(-c2ccccc2)c(C(=O)C(=O)Nc2ccc(-c3ncco3)cc2F)n1C` [Example 100, 2-(1,5-Dimethyl-3-phenyl-1H-pyrrol-2-yl)-N-[2-fluoro-4-oxazol-2-yl-phenyl)-2-oxo-acetamide]: the MIC in [1] is 1 to 10 µg/mL (≈ 2.48 to 24.8 µM); in the assay with Aspergillus terreus AT4 [2] it was under 1 µg/mL; in the assay with Aspergillus terreus AT49 [3] it was under 1 µg/mL; in the assay with Aspergillus flavus [4], under 1 µg/mL; in assay [5], under 1 µg/mL; in the assay on Aspergillus niger [6], under 1 µg/mL. The MIC is 1 to 10 µg/mL (≈ 2.48 to 24.8 µM) in assay [7]; under 1 µg/mL in the assay with Aspergillus terreus AT4 [8]; under 1 µg/mL in the assay on Aspergillus terreus AT49 [9]; under 1 µg/mL in the assay on Aspergillus flavus [10]; under 1 µg/mL in assay [11]; under 1 µg/mL in the assay with Aspergillus niger [12].

For the compound `Cc1cc(C)nc(N2CCN(c3ccc(NC(=O)C(=O)c4c(-c5ccccc5)cc(C)n4C)cc3C)CC2)c1` [Example 51, 2-(1,5-Dimethyl-3-phenyl-1H-pyrrol-2-yl)-N-{4-[4-(4,6-dimethyl-pyridin-2-yl)-piperazin-1-yl]-3-methyl-phenyl}-2-oxo-acetamide], the MIC (in assay [1]; with Aspergillus terreus AT4 [2]; with Aspergillus terreus AT49 [3]; with Aspergillus flavus [4]; in assay [5]; in the assay with Aspergillus niger [6]) was under 1 µg/mL in each case. For the same compound, the MIC (in assay [7]; in the assay with Aspergillus terreus AT4 [8]; with Aspergillus terreus AT49 [9]; with Aspergillus flavus [10]; in assay [11]; with Aspergillus niger [12]) was under 1 µg/mL in each case.

`CCc1cc(-c2ccccc2)c(C(=O)C(=O)Nc2ccc(N3CCN(c4cc(C)cc(C)n4)CC3)cc2)n1C` [Example 53, N-{4-[4-(4,6-Dimethyl-pyridin-2-yl)-piperazin-1-yl]-phenyl}-2-(5-ethyl-1-methyl-3-phenyl-1H-pyrrol-2-yl)-2-oxo-acetamide]: the MIC (in assay [1]; in the assay on Aspergillus terreus AT4 [2]; in the assay with Aspergillus terreus AT49 [3]; with Aspergillus flavus [4]; in [5]; in the assay with Aspergillus niger [6]) was under 1 µg/mL in each case. The MIC (in [7]; in the assay on Aspergillus terreus AT4 [8]; with Aspergillus terreus AT49 [9]; with Aspergillus flavus [10]; in assay [11]; with Aspergillus niger [12]) was under 1 µg/mL throughout.

Regarding `Cc1cc(C)nc(N2CCN(c3ccc(NC(=O)C(=O)c4c(-c5ccccc5)cc5n4CCN(C)C5)cc3)CC2)c1` [Example 5, N-{4-[4-(4,6-Dimethyl-pyridin-2-yl)-piperazin-1-yl]-phenyl}-2-(2-methyl-7-phenyl-1,2,3,4-tetrahydro-pyrrolo[1,2-a]pyrazin-6-yl)-2-oxo-acetamide], the MIC in [1] was 1 to 10 µg/mL (≈ 1.82 to 18.2 µM); with Aspergillus terreus AT4 [2], under 1 µg/mL; with Aspergillus terreus AT49 [3] it was under 1 µg/mL; with Aspergillus flavus [4] it was 1 to 10 µg/mL (≈ 1.82 to 18.2 µM); in [5], 1 to 10 µg/mL (≈ 1.82 to 18.2 µM); in the assay on Aspergillus niger [6], 1 to 10 µg/mL (≈ 1.82 to 18.2 µM). Also, the MIC was under 1 µg/mL in [7]; under 1 µg/mL with Aspergillus terreus AT4 [8]; under 1 µg/mL in the assay on Aspergillus terreus AT49 [9]; 1 to 10 µg/mL (≈ 1.82 to 18.2 µM) with Aspergillus flavus [10]; under 1 µg/mL in assay [11]; 1 to 10 µg/mL (≈ 1.82 to 18.2 µM) in the assay with Aspergillus niger [12].

Take `Cc1cc(-c2ccccc2)c(C(=O)C(=O)Nc2ccc(N3CCOCC3)cc2F)n1C` [Example 101, 2-(1,5-Dimethyl-3-phenyl-1H-pyrrol-2-yl)-N-(2-fluoro-4-morpholin-4-yl-phenyl)-2-oxo-acetamide]: the MIC (in [1]; in the assay on Aspergillus terreus AT4 [2]; with Aspergillus terreus AT49 [3]; with Aspergillus flavus [4]; in assay [5]; in the assay with Aspergillus niger [6]) was under 1 µg/mL each time. The MIC (in assay [7]; in the assay on Aspergillus terreus AT4 [8]; with Aspergillus terreus AT49 [9]; with Aspergillus flavus [10]; in assay [11]; with Aspergillus niger [12]) was under 1 µg/mL in each case.

With `CCCNC(=O)C(=O)c1cc(-c2ccccc2)cn1CCOC` [Example 121, 2-[1-(2-Methoxy-ethyl)-4-phenyl-1H-pyrrol-2-yl]-2-oxo-N-propyl-acetamide], the MIC (in assay [1]; in the assay on Aspergillus terreus AT4 [2]; in the assay on Aspergillus terreus AT49 [3]; in the assay on Aspergillus flavus [4]; in assay [5]; with Aspergillus niger [6]) was over 10 µg/mL in each case. For the same compound, the MIC is 1 to 10 µg/mL (≈ 3.18 to 31.8 µM) in assay [7]; 1 to 10 µg/mL (≈ 3.18 to 31.8 µM) with Aspergillus terreus AT4 [8]; 1 to 10 µg/mL (≈ 3.18 to 31.8 µM) with Aspergillus terreus AT49 [9]; over 10 µg/mL in the assay with Aspergillus flavus [10]; over 10 µg/mL in assay [11]; over 10 µg/mL in the assay on Aspergillus niger [12].

Regarding `Cc1cc(C)nc(N2CCN(c3ccc(NC(=O)C(=O)c4c(-c5ccccc5)cc(C)n4C)cc3O)CC2)c1` [Example 22, 2-(1,5-Dimethyl-3-phenyl-1H-pyrrol-2-yl)-N-{4-[4-(4,6-dimethyl-pyridin-2-yl)-piperazin-1-yl]-3-hydroxy-phenyl}-2-oxo-acetamide], the MIC (in assay [1]; in the assay on Aspergillus terreus AT4 [2]; in the assay on Aspergillus terreus AT49 [3]; in the assay with Aspergillus flavus [4]; in [5]; in the assay on Aspergillus niger [6]) was under 1 µg/mL each time. Further, the MIC (in assay [7]; in the assay on Aspergillus terreus AT4 [8]; in the assay with Aspergillus terreus AT49 [9]; in the assay with Aspergillus flavus [10]; in [11]; with Aspergillus niger [12]) was under 1 µg/mL throughout.

Turning to `Cc1cc(C)nc(N2CCN(c3ccc(NC(=O)C(=O)c4c(-c5ccccc5)cc(C)n4C)cc3COCCCN3CCOCC3)CC2)c1` [Example 10, 2-(1,5-Dimethyl-3-phenyl-1H-pyrrol-2-yl)-N-[4-[4-(4,6-dimethyl-pyridin-2-yl)-piperazin-1-yl]-3-(3-morpholin-4-yl-propoxymethyl)-phenyl]-2-oxo-acetamide], the minimal inhibitory concentration (MIC) (in assay [1]; in the assay on Aspergillus terreus AT4 [2]; with Aspergillus terreus AT49 [3]; in the assay with Aspergillus flavus [4]; in assay [5]; in the assay with Aspergillus niger [6]) was over 10 µg/mL each time. The MIC is over 10 µg/mL in assay [7]; over 10 µg/mL in the assay on Aspergillus terreus AT4 [8]; 1 to 10 µg/mL (≈ 1.5 to 15 µM) in the assay on Aspergillus terreus AT49 [9]; 1 to 10 µg/mL (≈ 1.5 to 15 µM) in the assay on Aspergillus flavus [10]; over 10 µg/mL in assay [11]; over 10 µg/mL in the assay with Aspergillus niger [12].

For the compound `Cc1cc(-c2ccccc2)c(C(=O)C(=O)Nc2ccc(N3CCCC3)nc2)n1C` [Example 99, 2-(1,5-Dimethyl-3-phenyl-1H-pyrrol-2-yl)-2-oxo-N-(6-pyrrolidin-1-yl-pyridin-3-yl)-acetamide], the MIC is 1 to 10 µg/mL (≈ 2.57 to 25.7 µM) in assay [1]; under 1 µg/mL with Aspergillus terreus AT4 [2]; under 1 µg/mL in the assay on Aspergillus terreus AT49 [3]; under 1 µg/mL in the assay with Aspergillus flavus [4]; under 1 µg/mL in assay [5]; under 1 µg/mL with Aspergillus niger [6]. Also, the MIC in assay [7] is under 1 µg/mL; in the assay with Aspergillus terreus AT4 [8], under 1 µg/mL; in the assay on Aspergillus terreus AT49 [9], under 1 µg/mL; in the assay with Aspergillus flavus [10] it was under 1 µg/mL; in assay [11], 1 to 10 µg/mL (≈ 2.57 to 25.7 µM); in the assay with Aspergillus niger [12] it was 1 to 10 µg/mL (≈ 2.57 to 25.7 µM).

Take `CCCCn1c(C)cc(-c2ccccc2)c1C(=O)C(=O)Nc1ccc(N2CCN(c3cc(C)cc(C)n3)CC2)cc1` [Example 36, 2-(1-Butyl-5-methyl-3-phenyl-1H-pyrrol-2-yl)-N-{4-[4-(4,6-dimethyl-pyridin-2-yl)-piperazin-1-yl]-phenyl}-2-oxo-acetamide]: the MIC (in assay [1]; in the assay on Aspergillus terreus AT4 [2]; with Aspergillus terreus AT49 [3]; with Aspergillus flavus [4]; in [5]; in the assay with Aspergillus niger [6]) was under 1 µg/mL throughout. Besides, the MIC (in assay [7]; in the assay with Aspergillus terreus AT4 [8]; in the assay on Aspergillus terreus AT49 [9]; in the assay on Aspergillus flavus [10]; in assay [11]; in the assay on Aspergillus niger [12]) was under 1 µg/mL each time.

With `COCCn1c(C)c(F)c(-c2ccccc2)c1C(=O)C(=O)Nc1ccc(N2CCN(c3cc(C)cc(C)n3)CC2)cc1` [Example 94, N-{4-[4-(4,6-Dimethyl-pyridin-2-yl)-piperazin-1-yl]-phenyl}-2-[4-fluoro-1-(2-methoxy-ethyl)-5-methyl-3-phenyl-1H-pyrrol-2-yl]-2-oxo-acetamide], the MIC in [1] was 1 to 10 µg/mL (≈ 1.76 to 17.6 µM); in the assay on Aspergillus terreus AT4 [2], 1 to 10 µg/mL (≈ 1.76 to 17.6 µM); in the assay with Aspergillus terreus AT49 [3], 1 to 10 µg/mL (≈ 1.76 to 17.6 µM); in the assay with Aspergillus flavus [4] it was over 10 µg/mL; in [5] it was under 1 µg/mL; in the assay with Aspergillus niger [6] it was 1 to 10 µg/mL (≈ 1.76 to 17.6 µM). In addition, the MIC was under 1 µg/mL in assay [7]; under 1 µg/mL in the assay on Aspergillus terreus AT4 [8]; under 1 µg/mL in the assay on Aspergillus terreus AT49 [9]; 1 to 10 µg/mL (≈ 1.76 to 17.6 µM) in the assay with Aspergillus flavus [10]; under 1 µg/mL in assay [11]; 1 to 10 µg/mL (≈ 1.76 to 17.6 µM) in the assay on Aspergillus niger [12].

What is called MIC is the lowest concentration found to suppress growth.
